Literature values as cited in patent publication US20170172905A1, “AGENT FOR TEMPORARILY RESHAPING KERATIN-CONTAINING FIBERS COMPRISING PRESERVATIVE” (Henkel AG & Co. KGaA, priority 2015, published 2017).

For CCCCC(CC)CN1CN(CC(CC)CCCC)CC(C)(N)C1 (stereo not shown) [hexetidine, 5-amino-1,3-bis(2-ethylhexal)hexahydro-5-methylpyrimidine], which logP value is on record?
Its logP value is 5.25.
